Experimental data reported in US20220251044A1, “CRYSTAL FORM OF HYPOXIA-INDUCIBLE FACTOR-PROLYL HYDROXYLASE INHIBITOR” (CRYSTAL PHARMACEUTICAL (SUZHOU) CO., LTD., priority 2019, published 2022).
Entries after “also recorded” stand apart in the source; their conditions may differ.

Columns and labels:
Format in all cases: physicochemical
[1] = Kinetic solubility in SGF, FaSSIF, FeSSIF and water
From the text: The parameters for kinetic solubility tests of the present disclosure are as follows:
When solubility test is used to predict the in vivo performance of a drug, it is critical to simulate in vivo conditions as closely as possible. For oral medication, Simulated Gastric Fluid (SGF), Fasted-State Simulated Intestinal Fluid (FaSSIF), Fed-State Simulated Intestinal Fluid (FeSSIF) can be used to simulate the condition in vivo and predict the effects of feeding, thus solubility in such mediums is closer to that in vivo.
20 mg of Form CSI and 20 mg of WO2014014835 Form A were suspended into 4.0 mL of SGF, 4.0 mL of FaSSIF, 4.0 mL of FeSSIF and 4.0 mL of water to get saturated solutions. After equilibrated for 1 h, 4 h, 8 h and 24 h, the concentrations (μg/mL) of Compound I of the saturated solutions were measured by UPLC.

[2] = Intrinsic dissolution (IDR); conditions: for IDR: slope of data within 5-120 minutes
Method: The parameters for intrinsic dissolution tests in the present disclosure are as follows:
Approximately 100 mg of Form CSI or WO2014014835 Form A was added into the cavity of the die, and then compressed at 10 kN and held for 0.5 minute to obtain a tablet having a surface area of 0.5 cm^2. The die with the tablet still embedded was put into a dissolution apparatus to test the intrinsic dissolution. The slope (in μg/min) of the regression line was calculated according to the data within 5-120 minutes. IDR (in μg/min/cm^2) was further calculated according to the slope.

[3] = Stability of Form CSI on storage (XRPD form, chemical purity)
Method: The parameters for purity tests of the present disclosure are as follows: [table] Approximately 5 mg of solid samples of Form CSI were stored under different conditions of 25° C./60% RH, 40° C./75% RH and 60° C./75% RH. Chemical purity and crystalline form were checked by HPLC and XRPD, respectively.

[4] = Physical stability on grinding (XRPD); conditions: ground manually for 5 min in a mortar
Method: Form CSI and WO2014014835 Form A was ground manually for 5 min in a mortar.

[5] = Pressure stability on tableting (XRPD)
From the text: Certain amount of Form CSI was compressed into tablets under different pressures with suitable tableting die. Crystalline forms before and after tableting were checked by XRPD.

Hygroscopicity by DVS = assay: Hygroscopicity by DVS
Method: Dynamic Vapor Sorption (DVS) was measured via an SMS (Surface Measurement Systems Ltd.) intrinsic DVS instrument. Its control software is DVS-Intrinsic control software. Typical parameters for DVS test are as follows: Temperature: 25° C. Gas and flow rate: N2, 200 mL/min dm/dt: 0.002%/min RH range: 0% RH to 95% RH DVS was applied to test the hygroscopicity of Form CSI and WO2014014835 Form A with about 10 mg of samples. The weight gains at each relative humidity were recorded in a cycle of 0-95%-0 RH. XRPD test was applied before and after DVS. Description and definition of hygroscopicity (general notice 9103 drug hygroscopicity test guidelines in 2015 edition of Chinese Pharmacopoeia, test at 25° C.±1° C., 80% RH. The definition of hygroscopicity in the 9th European Pharmacopoeia 5.11 is similar to the Chinese Pharmacopoeia.).

[6] = Compressibility (tablet hardness, tensile strength); conditions: 80 mg, compressed at 10 kN
Method: ENERPAC manual tablet press was used for compression. 80 mg of Form CSI and WO2014014835 Form A were weighed and added into the dies of a φ6 mm round tooling, compressed at 10 kN, then stored at room temperature for 24 h until complete elastic recovery. Hardness (H) was tested with an intelligent tablet hardness tester. Diameter (D) and thickness (L) were tested with a caliper. Tensile strength of the powder was calculated with the following formula: T=2H/πDL*9.8. Under a certain force, the greater the tensile strength, the better the compressibility.

[7] = Crystalline form stability in the formulation process (XRPD); conditions: capsule formulation of Table 17, process of Table 18
From the text: Form CSI of the present disclosure and WO2014014835 Form A were made into capsules using the formulation in Table 17 and the preparation process in Table 18. The XRPD patterns were collected before and after the formulation process. […] [table] [table]

[8] = 25° C./60% RH, sealed, 3 months
[9] = 40° C./75% RH, sealed, 3 months

- Kinetic solubility (concentration of Compound I in saturated solution) ([1]; FaSSIF, 1 hour): 617.0 µg/mL
- Kinetic solubility (concentration of Compound I in saturated solution) ([1]; FaSSIF, 4 hours): 934.6 µg/mL
- Kinetic solubility (concentration of Compound I in saturated solution) ([1]; FaSSIF, 8 hours): 1043.5 µg/mL
- Kinetic solubility (concentration of Compound I in saturated solution) ([1]; FaSSIF, 24 hours): 1109.6 µg/mL
- Kinetic solubility (concentration of Compound I in saturated solution) ([1]; FeSSIF, 1 hour): 180.4 µg/mL
- Kinetic solubility (concentration of Compound I in saturated solution) ([1]; FeSSIF, 4 hours): 270.3 µg/mL
- Kinetic solubility (concentration of Compound I in saturated solution) ([1]; FeSSIF, 8 hours): 295.3 µg/mL
- Kinetic solubility (concentration of Compound I in saturated solution) ([1]; FeSSIF, 24 hours): 314.4 µg/mL
- Kinetic solubility (concentration of Compound I in saturated solution) ([1]; SGF, 1 hour): 22.7 µg/mL
- Kinetic solubility (concentration of Compound I in saturated solution) ([1]; SGF, 4 hours): 24.0 µg/mL
- Kinetic solubility (concentration of Compound I in saturated solution) ([1]; SGF, 8 hours): 24.2 µg/mL
- Kinetic solubility (concentration of Compound I in saturated solution) ([1]; SGF, 24 hours): 24.0 µg/mL
- Kinetic solubility (concentration of Compound I in saturated solution) ([1]; water, 1 hour): 18.2 µg/mL
- Kinetic solubility (concentration of Compound I in saturated solution) ([1]; water, 4 hours): 21.9 µg/mL
- Kinetic solubility (concentration of Compound I in saturated solution) ([1]; water, 8 hours): 34.1 µg/mL
- Kinetic solubility (concentration of Compound I in saturated solution) ([1]; water, 24 hours): 25.7 µg/mL
- Increase of dissolution rate compared with Form A ([2]; pH 4.5 PBS): 41%
- Cumulative dissolution ([2]; pH4.5 PBS, 5 min, 37° C., 0.5 cm^2 tablet): 36.8 µg
- Cumulative dissolution ([2]; pH4.5 PBS, 10 min): 35.6 µg
- Cumulative dissolution ([2]; pH4.5 PBS, 15 min): 39.8 µg
- Cumulative dissolution ([2]; pH4.5 PBS, 20 min): 50.0 µg
- Cumulative dissolution ([2]; pH4.5 PBS, 25 min): 50.4 µg
- Cumulative dissolution ([2]; pH4.5 PBS, 30 min): 56.0 µg
- Cumulative dissolution ([2]; pH4.5 PBS, 45 min): 70.7 µg
- Cumulative dissolution ([2]; pH4.5 PBS, 60 min): 83.0 µg
- Cumulative dissolution ([2]; pH4.5 PBS, 90 min): 114.0 µg
- Cumulative dissolution ([2]; pH4.5 PBS, 120 min): 142.3 µg
- IDR ([2]; pH4.5 PBS): 1.8928 μg/min/cm^2
- Cumulative dissolution ([2]; pH6.8 PBS, 5 min, 37° C., 0.5 cm^2 tablet): 440.4 µg
- Cumulative dissolution ([2]; pH6.8 PBS, 10 min): 916.0 µg
- Cumulative dissolution ([2]; pH6.8 PBS, 15 min): 1345.9 µg
- Cumulative dissolution ([2]; pH6.8 PBS, 20 min): 1758.2 µg
- Cumulative dissolution ([2]; pH6.8 PBS, 25 min): 2152.9 µg
- Cumulative dissolution ([2]; pH6.8 PBS, 30 min): 2521.4 µg
- Cumulative dissolution ([2]; pH6.8 PBS, 45 min): 3392.2 µg
- Cumulative dissolution ([2]; pH6.8 PBS, 60 min): 4309.7 µg
- Cumulative dissolution ([2]; pH6.8 PBS, 90 min): 5967.2 µg
- Cumulative dissolution ([2]; pH6.8 PBS, 120 min): 7448.5 µg
- IDR ([2]; pH6.8 PBS): 120.3256 μg/min/cm^2
- Chemical purity during storage ([3]; 25° C./60% RH): above 99.5%
- Time the drug substance kept stable (crystalline state unchanged) ([3]; 25° C./60% RH): at least three months
- Crystalline form (XRPD) after storage ([3]; 25° C./60% RH, open, 3 months): Form CSI
- Purity after storage ([3]; 25° C./60% RH, open, 3 months): 99.68%
- Crystalline form (XRPD) after storage [3, 8]: Form CSI
- Purity after storage [3, 8]: 99.65%
- Time the drug substance kept stable (crystalline state unchanged) ([3]; 40° C./75% RH): at least three months
- Chemical purity during storage ([3]; 40° C./75% RH and 60° C./75% RH): above 99.5%
- Crystalline form (XRPD) after storage ([3]; 40° C./75% RH, open, 3 months): Form CSI
- Purity after storage ([3]; 40° C./75% RH, open, 3 months): 99.68%
- Crystalline form (XRPD) after storage [3, 9]: Form CSI
- Purity after storage [3, 9]: 99.66%
- Time the drug substance kept stable (crystalline state unchanged) ([3]; 60° C./75% RH): at least one month
- Crystalline form (XRPD) after storage ([3]; 60° C./75% RH, open, 1 month): Form CSI
- Purity after storage ([3]; 60° C./75% RH, open, 1 month): 99.63%
- Crystalline form (XRPD) after storage ([3]; 60° C./75% RH, sealed, 1 month): Form CSI
- Purity after storage ([3]; 60° C./75% RH, sealed, 1 month): 99.68%
- Crystalline form (XRPD) ([3]; Initial): Form CSI
- Purity ([3]; Initial): 99.71%
- Crystalline form and crystallinity after grinding (XRPD) [4]: remain unchanged after grinding
- Crystalline form after tableting (XRPD) ([5]; pressure 10 KN): Form CSI
- Crystalline form after tableting (XRPD) ([5]; pressure 15 KN): Form CSI
- Weight gain under 80% RH (Hygroscopicity by DVS; DVS, 25° C.): 0.12%
- Tensile strength ([6]; T=2H/πDL*9.8): 1.22 MPa
- Hardness ([6]; φ6 mm round tooling, after 24 h): 2.47 kgf
- Crystalline form before and after the formulation process (XRPD) [7]: remains stable
Compound: Cc1nc(C(=O)NCC(=O)O)c(O)c2ccc(Oc3ccccc3)cc12 [Form CSI, [(4-hydroxy-1-methyl-7-phenoxy-isoquinoline-3-carbonyl)-amino]-acetic acid]
- Hygroscopicity class (Hygroscopicity by DVS; weight gain under 80% RH): non-hygroscopic or almost non-hygroscopic; also recorded: non hygroscopic or almost non-hygroscopic
